Each structure is given as a SMILES string.

For the test, the target named is T1, human GPR119 (Homo sapiens, UniProt Q8TDV5).
T1 construct: expressed in transfected cells; host or cells: HEK293
T1 sequence (Q8TDV5 1-335): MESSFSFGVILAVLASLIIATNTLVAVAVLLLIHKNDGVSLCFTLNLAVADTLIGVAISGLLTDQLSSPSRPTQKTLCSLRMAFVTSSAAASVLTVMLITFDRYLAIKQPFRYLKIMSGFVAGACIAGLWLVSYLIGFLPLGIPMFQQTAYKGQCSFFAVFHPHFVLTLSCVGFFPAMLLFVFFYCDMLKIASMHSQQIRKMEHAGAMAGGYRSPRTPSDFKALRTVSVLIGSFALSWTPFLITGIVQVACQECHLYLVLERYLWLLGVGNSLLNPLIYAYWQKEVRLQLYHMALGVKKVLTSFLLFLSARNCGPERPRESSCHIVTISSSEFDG
Put plainly: Measurement of GPR119 signaling using LANCE 384-well cAMP kit (LCMP assay). Conditions: HEK293 cells stably transfected with human GPR119. The format is cell-based. The gist of the method: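 HEK293 cells stably expressing human GPR119, in stimulation buffer at pH 7.4 with 100 μM phosphodiesterase inhibitors, exposed to a 10-point compound dilution (2.5% DMSO final) for 45 min. cAMP measured by LANCE TR-FRET at 665 nm against a cAMP standard curve, normalized between DMSO basal and an internal agonist maximum, with a 4-parameter fit.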
For orientation: Time-resolved FRET reads energy transfer from a long-lived donor to a nearby acceptor.
Broadly, the EC50 is the midpoint of the concentration-response curve. A higher EC50 goes with a less potent agent. `CN(C)C(=O)Cc1ccc(OCC[C@@H]2C[C@H]2C2CCN(C(=O)OC3(C)CC3)CC2)cc1F` [Example 99, 1-methylcyclopropyl 4-((1S,2S)-2-(2-(4-(2-(dimethylamino)-2-oxoethyl)-3-fluorophenoxy)ethyl)cyclopropyl)piperidine-1-carboxylate]: the concentration for a half-maximal effect (EC50) turned out to be 8.8 nM. Consider `CN(C)C(=O)Cc1ccc(OCC[C@H]2C[C@@H]2C2CCN(C(=O)OC3(C)CC3)CC2)cc1F` [Example 100, 1-methylcyclopropyl 4-((1R,2R)-2-(2-(4-(2-(dimethylamino)-2-oxoethyl)-3-fluorophenoxy)ethyl)cyclopropyl)piperidine-1-carboxylate], for which a half-maximal effect (EC50) was put at 5.5 nM.

Consider `CC1(OC(=O)N2CCC([C@@H]3C[C@H]3CCOc3cc(F)c(CC(=O)N4CCC4)c(F)c3)CC2)CC1` [Example 101, 1-methylcyclopropyl 4-((1S,2S)-2-(2-(4-(2-(azetidin-1-yl)-2-oxoethyl)-3,5-difluorophenoxy)ethyl)cyclopropyl)piperidine-1-carboxylate], for which the EC50 is 2 nM. With `CN(C)C(=O)Cc1c(F)cc(OCC[C@@H]2C[C@H]2C2CCN(C(=O)OC3(C)CC3)CC2)cc1F` [Example 102, 1-methylcyclopropyl 4-((1S,2S)-2-(2-(4-(2-(dimethylamino)-2-oxoethyl)-3,5-difluorophenoxy)ethyl)cyclopropyl)piperidine-1-carboxylate] the figure was 2.1 nM; with `CC1(OC(=O)N2CCC([C@H]3C[C@@H]3CCOc3cc(F)c(CC(=O)N4CCC4)c(F)c3)CC2)CC1` [Example 103, 1-methylcyclopropyl 4-((1R,2R)-2-(2-(4-(2-(azetidin-1-yl)-2-oxoethyl)-3,5-difluorophenoxy)ethyl)cyclopropyl)piperidine-1-carboxylate], 0.7 nM; with `CN(C)C(=O)Cc1c(F)cc(OCC[C@H]2C[C@@H]2C2CCN(C(=O)OC3(C)CC3)CC2)cc1F` [Example 104, 1-methylcyclopropyl 4-((1R,2R)-2-(2-(4-(2-(dimethylamino)-2-oxoethyl)-3,5-difluorophenoxy)ethyl)cyclopropyl)piperidine-1-carboxylate], 0.69 nM. On to `CC1(OC(=O)N2CCC([C@@H]3C[C@H]3CCOc3ccc(-n4cnnn4)c(F)c3)CC2)CC1` [Example 105, 1-methylcyclopropyl 4-((1S,2S)-2-(2-(3-fluoro-4-(1H-tetrazol-1-yl)phenoxy)ethyl)cyclopropyl)piperidine-1-carboxylate], for which a half-maximal effect (EC50) was put at 15 nM. Take `CC1(OC(=O)N2CCC([C@H]3C[C@@H]3CCOc3ccc(-n4cnnn4)c(F)c3)CC2)CC1` [Example 106, 1-methylcyclopropyl 4-((1R,2R)-2-(2-(3-fluoro-4-(1H-tetrazol-1-yl)phenoxy)ethyl)cyclopropyl)piperidine-1-carboxylate]: the 50% effective concentration (EC50) was 14 nM.

Molecule `CC1(OC(=O)N2CCC([C@H]3C[C@@H]3CCOc3ccc(-n4cnnn4)cc3F)CC2)CC1` [Example 107, 1-methylcyclopropyl 4-((1R,2R)-2-(2-(2-fluoro-4-(1H-tetrazol-1-yl)phenoxy)ethyl)cyclopropyl)piperidine-1-carboxylate] had a concentration for a half-maximal effect (EC50) of 17 nM. As to `CC1(OC(=O)N2CCC([C@@H]3C[C@H]3CCOc3ccc(CC(=O)N4CCC4)cc3F)CC2)CC1` [Example 108, 1-methylcyclopropyl 4-((1S,2S)-2-(2-(4-(2-(azetidin-1-yl)-2-oxoethyl)-2-fluorophenoxy)ethyl)cyclopropyl)piperidine-1-carboxylate], the half-maximal effective concentration (EC50) came out at 24 nM. With `CS(=O)(=O)c1ccc(OCC[C@H]2C[C@@H]2C2CCN(c3ncc(Cl)cn3)CC2)nc1` [Example 109, 5-chloro-2-(4-((1R,2R)-2-(2-(5-(methylsulfonyl)pyridin-2-yloxy)ethyl)cyclopropyl)piperidin-1-yl)pyrimidine] the figure was 22 nM. With `CC(C)c1noc(N2CCC([C@H]3C[C@@H]3CCOc3ccc(S(C)(=O)=O)cn3)CC2)n1` [Example 110, 3-isopropyl-5-(4-((1R,2R)-2-(2-(5-(methylsulfonyl)pyridin-2-yloxy)ethyl)cyclopropyl)piperidin-1-yl)-1,2,4-oxadiazole], the EC50 turned out to be 18 nM. `CCS(=O)(=O)c1ccc(OCC[C@@H]2C[C@H]2C2CCN(c3nc(C(C)C)no3)CC2)nc1` [Example 111, 5-(4-((1S ,2S)-2-(2-((5-(ethylsulfonyl)pyridin-2-yl)oxy)ethyl)cyclopropyl)piperidin-1-yl)-3-isopropyl-1,2,4-oxadiazole]: the EC50 is 17 nM. Molecule `CCc1cnc(N2CCC([C@H]3C[C@@H]3CCOc3ccc(CC(=O)N4CCC4)cn3)CC2)nc1` [Example 115, 1-(azetidin-1-yl)-2-(6-(2-((1R,2R)-2-(1-(5-ethylpyrimidin-2-yl)piperidin-4-yl)cyclopropyl)ethoxy)pyridin-3-yl)ethanone] came in with a concentration for a half-maximal effect (EC50) of 10 nM. Then `CCc1cnc(N2CCC([C@@H]3C[C@H]3CCOc3ccc(CC(=O)N4CCC4)cn3)CC2)nc1` [Example 116, 1-(azetidin-1-yl)-2-(6-(2-((1S,2S)-2-(1-(5-ethylpyrimidin-2-yl)piperidin-4-yl)cyclopropyl)ethoxy)pyridin-3-yl)ethanone], with 9.7 nM. With `CCc1cnc(N2CCC([C@H]3C[C@@H]3CCOc3cc(F)cc(F)c3CC(=O)N(C)C)CC2)nc1` [Example 117, 2-(2-(2-((1R,2R)-2-(1-(5-ethylpyrimidin-2-yl)piperidin-4-yl)cyclopropyl)ethoxy)-4,6-difluorophenyl)-N,N-dimethylacetamide] the figure was 12 nM. With `CCc1cnc(N2CCC([C@@H]3C[C@H]3CCOc3cc(F)cc(F)c3CC(=O)N3CCC3)CC2)nc1` [Example 118, 1-(azetidin-1-yl)-2-(2-(2-((1S,2S)-2-(1-(5-ethylpyrimidin-2-yl)piperidin-4-yl)cyclopropyl)ethoxy)-4,6-difluorophenyl)ethanone] the figure was 17 nM; with `CCc1cnc(N2CCC([C@H]3C[C@@H]3CCOc3cc(F)cc(F)c3CC(=O)N3CCC3)CC2)nc1` [Example 119, 1-(azetidin-1-yl)-2-(2-(2-((1R,2R)-2-(1-(5-ethylpyrimidin-2-yl)piperidin-4-yl)cyclopropyl)ethoxy)-4,6-difluorophenyl)ethanone], 17 nM; with `CC1(OC(=O)N2CCC([C@@H]3C[C@H]3CCOc3ccc(CC(=O)N4CCC4)cn3)CC2)CC1` [Example 120, 1-methylcyclopropyl 4-((1S,2S)-2-(2-(5-(2-(azetidin-1-yl)-2-oxoethyl)pyridin-2-yloxy)ethyl)cyclopropyl)piperidine-1-carboxylate], 21 nM. With `CC(C)c1noc(N2CCC([C@@H]3C[C@H]3CCOc3ccc(CC(=O)N4CCC4)cn3)CC2)n1` [Example 121, 1-(azetidin-1-yl)-2-(6-(2-((1S,2S)-2-(1-(3-isopropyl-1,2,4-oxadiazol-5-yl)piperidin-4-yl)cyclopropyl)ethoxy)pyridin-3-yl)ethanone], the midpoint of the response, the EC50, lay at 24 nM. Molecule `CC(C)c1noc(N2CCC([C@H]3C[C@@H]3CCOc3cc(F)cc(F)c3CC(=O)N(C)C)CC2)n1` [Example 122, 2-(2,4-difluoro-6-(2-((1R,2R)-2-(1-(3-isopropyl-1,2,4-oxadiazol-5-yl)piperidin-4-yl)cyclopropyl)ethoxy)phenyl)-N,N-dimethylacetamide] gave an EC50 of 20 nM.

Consider `Clc1cnc(N2CCC([C@H]3C[C@@H]3CCNc3ncc(-n4cnnn4)cn3)CC2)nc1` [Example 123, N-(2-((1R,2S)-2-(1-(5-chloropyrimidin-2-yl)piperidin-4-yl)cyclopropyl)ethyl)-5-(1H-tetrazol-1-yl)pyrimidin-2-amine], for which the midpoint of the response, the EC50, lay at 10 nM.

Molecule `CCc1cnc(N2CCC([C@H]3C[C@@H]3CCNc3ncc(-n4cnnn4)cn3)CC2)nc1` [Example 125, N-(2-((1R,2S)-2-(1-(5-ethylpyrimidin-2-yl)piperidin-4-yl)cyclopropyl)ethyl)-5-(1H-tetrazol-1-yl)pyrimidin-2-amine] gave an EC50 of 18 nM. `CC(C)c1noc(N2CCC([C@@H]3C[C@H]3CCNc3ncc(-n4cnnn4)cn3)CC2)n1` [Example 126, N-(2-((1S,2R)-2-(1-(3-isopropyl-1,2,4-oxadiazol-5-yl)piperidin-4-yl)cyclopropyl)ethyl)-5-(1H-tetrazol-1-yl)pyrimidin-2-amine] came in with an EC50 of 16 nM.

The values are drawn from patent US20150274664A1 (MERCK SHARP & DOHME CORP., priority 2012, published 2015).
